Assay results from US9040261B2, “Compounds as L-cystine crystallization inhibitors and uses thereof” (NEW YORK UNIVERSITY, priority 2009, dated 2015).
Marks after values point to notes of the source that are not given here.

Key:
[1] = AFM step velocity and hillock imaging with L-cystine diesters under continuous flow
Method: Atomic force microscopy was performed with a Digital Instruments (Santa Barbara, Calif.) Nanoscope Ma Multimode system. All measurements were performed in a cell designed to contain liquids for in situ imaging, including step velocity measurements. All measurements were performed in contact mode using Veeco NP_B Si3N4 tips on silicon nitride cantilevers with a spring constant of 0.12N/m (triangular, 196 μm length, 41 μm width). L-cystine crystals (hexagonal form) were transferred onto an AFM specimen disk coated with partially cured (1 hr) UV-curable optical cement (Type SK-9, EMS Acquisition Corp.) by gently pressing the disk against hexagonal platelets collected by filtration (Whatman Nuclepore membrane, 8 μm). The (001) faces of the hexagonal plates naturally aligned parallel with the specimen disk such that the velocity of the equivalent {100} steps could be measured readily by AFM. The partially cured polymer with the adhered crystals was cured completely by additional UV radiation (2 hrs) prior to analysis. The mounted L-cystine crystals were etched slightly by immersion in deionized water for 30 sec at 60° C. to remove amorphous deposits or impurities that may be present on the surface. Step velocities on the hexagonal L-cystine crystals were measured by AFM using a fluid cell containing an aqueous solution, supersaturated with L-cystine (2 mM), introduced to the cell via a syringe. Step velocities were determined by measuring the distance of the steps from a reference point, usually the dislocation core, in consecutive deflection images acquired at periodic intervals, ranging from 9-14 sec. Measurements were acquired under continuous flow of fresh solution in order to maintain constant supersaturation and additive concentration. […] The step velocities, which correspond to the crystal growth rates, were measured with and without inhibitor for each pair.

[2] = dosages between 100 mg/L and 20 g/L per day; ATP, reactive oxygen species levels, cell viability; cited from earlier work
[3] = Bulk crystallization of L-cystine in the presence of additives (mass yield); conditions: for Yield (%) = (collected mass by filtration, >11 μm)/(total mass added) × 100%: 2 mg/L additive, 0.7 g/L L-cystine (pH 6.8), no additive 80, approximate error ±8%, Dihydrochloride
Method: Alternately, the hexagonal crystals can be obtained by crystallization performed near neutral pH (Sa) The hexagonal form was crystallized from a supersaturated L-cystine solution prepared by adding 70 mg of L-cystine to 100 mL of deionized water (3 mM), and heating under reflux at 100° C. for 20 min with stirring to completely dissolve L-cystine. […] This concentration was used for bulk crystallization studies in the presence of additives so that a measurable amount of bulk crystals could be obtained in a reasonable time. The solution was then allowed to cool slowly with stirring for 75 min. 30 mL aliquots were transferred to separate glass containers, which were then sealed to prevent evaporation and exposure to airborne particulates and stored for 72 hours at room temperature without stirring. […] The crystals retrieved in this manner were used for AFM studies by mounting individual crystals according to the procedure described below.
Various proteins, poly-amino acids, and molecular mimics of L-cystine were examined as additives. The aforementioned procedure for hexagonal platelet crystallization was repeated. Following the 75 min cooling period, prior to any observable crystallization, the additive was added to the supersaturated L-cystine solution to the desired concentration. […] Crystallization without additive was performed in an identical manner for comparison using a control solution from the same batch. The mass yields of L-cystine crystals were obtained by dividing the mass of L-cystine crystals (collected from growth solution by filtration) by the mass of L-cystine added in the growth solution.
Additives chosen for these studies were various proteins, poly-amino acids, and molecular mimics of L-cystine (see Table 1). The above procedure for hexagonal platelet crystallization was repeated until completion of the 75 min cooling period, at which point 29.5 g of solution was transferred to a 100 mL beaker containing 0.5 g of separately prepared additive solution to yield net concentrations of 2 mg/L additive and 0.7 g/L L-cystine. Additive solutions were replaced with deionized water of equivalent volume for control measurements. […]
L-cystine bulk crystallization was investigated in the presence of various polymers, urinary constituents, fish antifreeze proteins (AFPs), and L-cystine derivatives (i.e. structural mimics of L-cystine), which were analyzed as possible growth inhibitors of hexagonal L-cystine. The potency of each additive was assessed by comparing the difference in crystal yield (Table 1), which is equal to the mass of crystals formed in the presence of 2 mg/L additive (isolated with […]) divided by the total mass of L-cystine (700 mg/L).

Compound: COC(=O)[C@@H](N)CSSC[C@H](N)C(=O)OC.Cl.Cl [CDME, Cystine Dimethyl Ester Dihydrochloride]
- order of step roughening, corresponding to the trend in inhibition ([1]; 0.015 mM inhibitor, 2 mM L-cystine): L-CDME>L-CDEE>L-CDIE>L-CDTE
- inhibition of step velocity compared among four L-cystine diesters ([1]; 0.015 M inhibitor): best inhibitor
- toxicity in cell culture and in vivo animal studies [2]: possible adverse affects
- CDME concentration sufficient to inhibit in vitro L-cystine crystallization ([3]; 2 mM L-cystine): ~25 mg/L
- Yield (%) = (collected mass by filtration, >11 μm)/(total mass added) × 100% [3]: 13%
- Yield (%) = (collected mass by filtration, >11 μm)/(total mass added) × 100% ([3]; listed as L-cystine dimethyl ester): 13* %
- CDME amount sufficient to suppress crystallization ([3]; 25 mg/L CDME in supersaturated L-cystine, 8 μm filter pores): 3 wt %
- mass yield of needles less than the yield of platelets in the absence of additive ([3]; CDME concentration approaching 5 mg/L): more than 70%
- CDME dosage that may be sufficient to inhibit in vivo L-cystine crystallization ([3]; extrapolated from 2 mM to physiological urine L-cystine (~0.4 mM)): less than 4 mg/L
